Test results taken from US11717511B2, “Pharmaceutical composition comprising derivative compound of 1,2-naphthoquinone for preventing or treating solid cancer or blood cancer” (HUEN Co., Ltd., priority 2018, dated 2023).

Legend:
[1] = test system: HeLa (cervix adenocarcinoma) cells; assay: Cell viability of solid cancer cells, WST assay, HeLa; assay type: cell-based; details: Homo sapiens, 1-30 μM, 6 hours
Text: (§1) To investigate availability as a medicine for solid cancer, A549 cell line obtained from a -person with lung carcinoma, HeLa cell line obtained from a person with cervix adenocarcinoma, HepG2 cell line obtained from a child with hepatocellular carcinoma, MCF7 cell line obtained from a person with breast adenocarcinoma, and Beas-2B cell line obtained from normal lung for comparison with solid cancer cell line were used.
(§2) A549 (lung carcinoma), HeLa (cervix adenocarcinoma), HepG2 (hepatocellular carcinoma), MCF7 (breast adenocarcinoma), and Beas-2B (normal lung) cell lines were incubated in DMEM medium containing 10% FBS at 37 °C in a 5% CO2 incubator, and subcultured every 2 days before use in the test.
(§3) A549 (lung carcinoma), HeLa (cervix adenocarcinoma), HepG2 (hepatocellular carcinoma), MCF7 (breast adenocarcinoma), and Beas-2B (normal lung) cells were seeded at 1×10^4 cells/well in a 96-well plate, and then for cell stabilization, the cells were incubated at 37 °C in a 5% CO2 incubator for 16 hours or longer. Thereafter, the cells were treated with compounds 99, 163, 191, and 192 (1-30 μM) out of the compounds synthesized in Example 1-1, and then incubated for 6 hours. DMSO and β-lapachone were used as a control. After 4 hours of incubation, 10 μl of WST solution was added to the cells, followed by incubation for 2 hours, and then the absorbance at 450 nm was measured by a multi-scan machine. The cell viability of A549 (lung carcinoma), HeLa (cervix adenocarcinoma), HepG2 (hepatocellular carcinoma), MCF7 (breast adenocarcinoma), and Beas-2B (normal lung) cells is shown in Table 5 and FIG. 5.

[2] = test system: A549 (lung carcinoma) cells; assay: Cell viability of solid cancer cells, WST assay, A549; assay type: cell-based; details: Homo sapiens, 1-30 μM, 6 hours
Text: as §1, §2, §3

[3] = test system: HepG2 (hepatocellular carcinoma) cells; assay: Cell viability of solid cancer cells, WST assay, HepG2; assay type: cell-based; details: Homo sapiens, 1-30 μM, 6 hours
Text: as §1, §2, §3

[4] = test system: K562 cells (chronic myeloid leukemia); assay: Cell viability of K562 cells, WST assay; assay type: cell-based, human; details: 0.1-5 μM
Method: K562 cells obtained from a -person with chronic myeloid leukemia were incubated in RPMI medium containing 10% fetal bovine serum (FBS) at 37 °C in a 5% CO2 incubator, and subcultured every 2 days before use in the test.
K562 cells incubated in Example 3-1 were seeded at 1×10^5 cells/well in a 96-well plate, and then for cell stabilization, the cells were incubated at 37 °C in a 5% CO2 incubator for 16 hours or longer. Thereafter, the cells were treated with compounds 99, 163, 191, and 192 (0.1-5 μM) out of the compounds synthesized in Example 1-1, and then incubated for 4 hours. DMSO was used as a control. After 4 hours of incubation, 10 μl of WST solution was added to the cells, followed by incubation for 2 hours, and then the absorbance at 450 nm was measured by a multi-scan machine.

[5] = test system: MCF7 (breast adenocarcinoma) cells; assay: Cell viability of solid cancer cells, WST assay, MCF7; assay type: cell-based; details: Homo sapiens, 1-30 μM, 6 hours
Text: as §1, §2, §3

[6] = test system: KG1α cells (refractory acute myeloid leukemia); assay: Cell viability of KG1α cells, WST assay; assay type: cell-based, human; details: 0.1-3 μM
Method: Acute leukemia has been identified to have a wide variety of causative factors and a variety of cell lines have also been established. To investigate the availability as a wide-spectrum medicine but not a medicine for a particular type of acute leukemia, KG1α cells were constructed by selecting only cells having a stem cell phenotype from KG1 cells, which are a cell line obtained from a -person with acute myeloid leukemia, and then used.
KG1α cells were incubated in IMDM containing 20% fetal bovine serum (FBS). All the cells were incubated at 37 °C in a 5% CO2 incubator, and subcultured every 2 or 3 days before use in the test.
KG1α cells, which have resistance to idarubicin and cytarabine, which are acute myeloid leukemia medicines, are refractory acute myeloid leukemia (AML) cells. KG1α cells incubated in Example 2-1 were seeded at 1×10^5 cells/well in a 96-well plate, and then for cell stabilization, the cells were incubated at 37 °C in a 5% CO2 incubator for 16 hours or longer. Thereafter, the cells were treated with compounds 99 and 163 (0.1-3 μM) shown in Table 4 out of the compounds synthesized in Example 1, and then incubated for 24 hours. […] After 24 hours, the cells were treated with 10 μl of WST solution and then incubated for 2 hours, and then the absorbance at 450 nm was measured by a multi-scan machine.

Row | IC50 [1] [µM] | IC50 [2] [µM] | IC50 [3] [µM] | IC50 ([4]; 4 hours) [µM] | IC50 ([4]; Homo sapiens, K562, 4 h) [µM] | IC50 [5] [µM] | IC50 ([6]; 24 hours) [µM] | IC50 ([6]; Homo sapiens, KG-1, 24 h) [µM] | SMILES
1 | 6.6 | 8.4 | 13.8 | 1.6 | 1 to 2 | 14.8 | – | – | Cn1nc2c(n1)-c1ccccc1C(=O)C2=O [Compound 191]
2 | 4.6 | 6.1 | 14.1 | – | 2.1 | 13 | 0.9 | 0.5 to 1 | CC(C)c1nc2c(s1)C(=O)C(=O)c1ccccc1-2 [Compound 163]
3 | 4.4 | 5 | 12.2 | 1.2 | 1 to 2 | 11.7 | – | – | Cn1nnc2c1C(=O)C(=O)c1ccccc1-2 [Compound 192]
